Test results taken from patent US7258984B2, “Compositions and methods for identifying agents which regulate autolytic processes in bacteria” (priority 2001, dated 2007).

Tests used:
Assay type in all cases: cell-based, Staphylococcus aureus
[1] = system: S. aureus sarA mutant; test: TRITON X-100 sensitivity, sarA mutant
Description: (§1) TRITON® X-100 sensitivity was determined for rat, sarA, and rat-sarA double-mutant strains.
(§2) The effect of TRITON® X-100 on growing cells was determined by diluting cultures grown overnight to an OD650 nm of 0.1 in TSB with varying concentrations of TRITON® X-100. Cells were incubated at 37° C. with shaking and the optical density was recorded hourly for seven to eight hours.
(§3) TRITON® X-100-induced autolysis assays were conducted by diluting cultures grown overnight to an OD650 nm of 0.05 in TSB containing 1 M NaCl. Cells were allowed to grow at 37° C. with shaking until an OD650 nm of 0.7 was reached. Cells were harvested, washed twice with ice cold water and then resuspended in the same volume of 0.05 M Tris-HCl, pH 7.2, containing 0.05% TRITON® X-100. Cells were incubated at 30° C. with shaking and lysis was determined by measuring absorbance at OD600 nm at 30 minutes intervals.

[2] = system: S. aureus rat-sarA double-mutant; test: TRITON X-100-induced cell lysis, rat-sarA double mutant; conditions: compared with single mutants
Description: as §1, §2, §3

[3] = system: S. aureus rat mutant; test: TRITON X-100 sensitivity, rat mutant
Description: as §1, §2, §3

[4] = system: S. aureus rat deletion mutant; test: Penicillin-induced lysis, rat deletion mutant (ACL2530); conditions: 100 μg penicillin (3× MIC)
Description: (§4) Similar to the rat transposon mutant, the rat deletion mutant was unable to grow to an OD650 nm of 1.7 (early-stationary).
(§5) Penicillin sensitivity assays were conducted by diluting rat mutant cultures grown overnight to an OD650 nm of 0.05 in TSB containing the appropriate antibiotics to maintain selection. Cultures were grown at 37° C. with shaking to reach exponential phase (OD650 nm=0.5). Penicillin G was added to a concentration of 0.1 μg/ml. Optical densities at 650 nm were measured every hour for eight to nine hours.

[5] = system: S. aureus rat mutant; test: Plating of antibiotic-treated cultures on agar plates without antibiotic selection (kill); conditions: subinhibitory concentrations of penicillin; plated on agar without antibiotic selection
Description: (§6) Rat plays a role in regulating autolytic activity of S. aureus. […] Furthermore, inactivation of the rat locus renders the S. aureus bacteria sensitive to lysis upon growth beyond the mid-log phase. To evaluate whether the cell lysis of the rat mutant was additive to the effect of a subinhibitory concentration of penicillin, 200 ng/ml of penicillin was added to a growing culture of the rat mutant at an OD650 nm of 0.5, corresponding to the mid-log phase. […] This finding is consistent with the additive effect of penicillin upon the lytic propensity of the rat mutant late in the growth cycle. […] In comparison to the parental strain, the rat mutant with subinhibitory concentrations of penicillin has a 3-4 log kill than the parental strain with antibiotics.

[6] = system: S. aureus complemented strain (ACL2531); test: Penicillin-induced lysis, complemented strain (ACL2531); conditions: 100 μg penicillin (3× MIC)
Description: as §4
as §5, with “Penicillin G was added to a concentration of 0.1 μg/ml.” left out

[7] = system: S. aureus rat mutant; test: Penicillin sensitivity assay (growth curve, OD650 nm), rat mutant; conditions: 200 ng/ml (subinhibitory) added at OD650 nm of 0.5, mid-log phase
Description: as §6, §5

[8] = system: wild-type S. aureus; test: Penicillin sensitivity assay (growth curve, OD650 nm), wild-type strain; conditions: 200 ng/ml (subinhibitory) added at OD650 nm of 0.5, mid-log phase
Description: as §6, §5

| Substance | TRITON X-100 concentration at which sensitivity was displayed [1] [%] | TRITON X-100-induced cell lysis [2] | TRITON X-100 concentration at which sensitivity was displayed [3] [%] | lysis in the presence of penicillin [4] | kill of rat mutant compared with the parental strain with antibiotics [5] | lysis in the presence of penicillin [6] | optical density as the growth cycle progressed after addition of penicillin [7] | optical density as the growth cycle progressed after addition of penicillin [8] |
| --- | --- | --- | --- | --- | --- | --- | --- | --- |
| TRITON® X-100 | ≥ 0.01 | more severe defect | ≥ 0.01 | – | – | – | – | – |
| penicillin | – | – | – | readily lysed | 3-4 log | behaved like wild-type | further reduction in optical density | no increase in optical density |
